From US20260035367A1 (Celgene Corporation, priority 2021, published 2026) come the findings set out here.

For experiment [1], the target named is T1, Recombinant human PKC-delta (His-tagged 345-676) (Homo sapiens, UniProt Q05655).
T1 construct: PKC-delta (His-tagged 345-676); His
Nature of the experiment: PKC-delta inhibition assay (HTRF KinEASE kit). The class given is biochemical. To be noted: ratio, PKC-theta vs PKC-delta HTRF; for PKC-theta/PKC-delta selectivity (binned): binned A to G. In general terms: TR-FRET usually uses a lanthanide donor and a delayed reading to cut background.

The target in experiment [2] is T2, Recombinant human PKC-theta (His-tagged 362-706) (Homo sapiens, UniProt Q04759).
T2 construct: Recombinant human PKC-theta (His-tagged 362-706); His
T2 sequence (Q04759 362-706): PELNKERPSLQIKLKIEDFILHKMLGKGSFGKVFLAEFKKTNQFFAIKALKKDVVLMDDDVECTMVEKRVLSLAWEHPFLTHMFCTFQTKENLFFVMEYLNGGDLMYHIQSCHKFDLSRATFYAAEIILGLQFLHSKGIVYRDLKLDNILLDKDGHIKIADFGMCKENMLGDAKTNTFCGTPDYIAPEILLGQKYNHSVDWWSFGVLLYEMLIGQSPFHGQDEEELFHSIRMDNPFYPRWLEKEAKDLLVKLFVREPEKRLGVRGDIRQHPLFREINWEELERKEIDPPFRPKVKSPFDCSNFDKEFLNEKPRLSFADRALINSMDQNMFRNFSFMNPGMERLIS
In words: PKC-theta inhibition assay (HTRF KinEASE kit). The class given is biochemical. To be noted: ATP 6.5 μM, STK substrate 525 nM. A digest of the protocol:
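IC50 values were from 4-parameter logistic fits of percent inhibition, based on acceptor/donor HTRF ratios over 10 semi-log compound doses. Kinase reactions, started with substrate plus ATP, ran 30 min at 25 °C in buffer supplemented with 10 mM MgCl2, 1 mM DTT and 0.1% Tween 20; detection lasted 2 h.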

Experiment [3] concerns IL-2 secretion by human effector memory T cells (TEM). Nature of the experiment: Effector memory T cells IL-2 release assay (CD3/CD28 stimulation, HTRF IL-2 detection). The class given is cell-based. To be noted: Homo sapiens, T-cell, 24 h. Put shortly:
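Human effector memory T cells from healthy-donor buffy coats were exposed in triplicate to ten semi-log doses of compound in 0.1% DMSO. The cells were stimulated and incubated 24 h at 37 °C. Secreted IL-2 in the supernatant was measured by HTRF.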

[4] abbreviates: binned A to H, read-out: PKC-theta HTRF pIC50 (binned) (converted).
[5] abbreviates: read-out: PKC-theta HTRF pIC50 (converted).
Where [6] appears, read: binned A to G, read-out: PKC-theta IL2 pIC50 (binned) (converted).
[7] abbreviates: read-out: PKC-theta IL2 pIC50 (converted).

Read-outs that look alike come from different tables or passages of the source.

T1 sequence (Q05655 345-676): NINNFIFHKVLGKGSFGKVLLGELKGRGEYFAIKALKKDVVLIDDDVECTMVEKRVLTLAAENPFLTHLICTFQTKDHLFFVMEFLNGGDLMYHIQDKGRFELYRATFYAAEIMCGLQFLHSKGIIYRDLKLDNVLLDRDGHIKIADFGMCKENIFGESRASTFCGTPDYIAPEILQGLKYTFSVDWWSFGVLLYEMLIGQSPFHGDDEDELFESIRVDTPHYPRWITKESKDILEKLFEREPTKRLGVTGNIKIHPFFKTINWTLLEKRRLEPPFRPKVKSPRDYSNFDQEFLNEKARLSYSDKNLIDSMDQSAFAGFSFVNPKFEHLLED

Turning to `CC1(C)CN(c2cc(C(F)(F)F)cc(-c3ccnc4c3[C@](C)(O)C(=O)N4)n2)CCN1` (single isomer, unassigned) [Example 134], in experiment [1], the PKC-theta/PKC-delta selectivity is 10. Besides, the “PKC-theta/PKC-delta selectivity (binned)” value in experiment [1] was “D (a ratio of between 10 and 20)”. Also, the IC50 in experiment [2] (setting [4]) is 3.16 to 10 nM; in experiment [2] (setting [5]), 7.94 nM; in experiment [3] (setting [6]), 100 to 316 nM; in experiment [3] (setting [7]), 100 nM.

In the case of `C[C@@H]1CN(c2cc(-c3ccnc4c3C(C)(O)C(=O)N4)cc(C(F)(F)F)c2)CCN1` (stereo partly drawn) [Example 77], the PKC-theta/PKC-delta selectivity in experiment [1] was determined as 12. For the same molecule, the “PKC-theta/PKC-delta selectivity (binned)” value in experiment [1] was “D (a ratio of between 10 and 20)”. The IC50 in experiment [2] (setting [4]) was 31.6 to 100 nM; in experiment [2] (setting [5]) it was 100 nM; in experiment [3] (setting [6]), over 1000 nM; in experiment [3] (setting [7]) it was 2510 nM.

In the case of `CCC1(C)C(=O)Nc2nccc(-c3cc(C(F)(F)F)cc(N4CCN[C@@H](C)C4)n3)c21` (stereo partly drawn) [Example 114], the PKC-theta/PKC-delta selectivity in experiment [1] is 13. For the same molecule, the “PKC-theta/PKC-delta selectivity (binned)” value in experiment [1] was “D (a ratio of between 10 and 20)”. Also, the IC50 in experiment [2] (setting [4]) is 3.16 to 10 nM; in experiment [2] (setting [5]), 5.01 nM; in experiment [3] (setting [6]) it was 31.6 to 100 nM; in experiment [3] (setting [7]), 63.1 nM.

For `CC1(C)C(=O)Nc2nccc(-c3cc(C(F)(F)F)cc(N4CCN[C@@H](CO)C4)n3)c21` [Example 83], the PKC-theta/PKC-delta selectivity in experiment [1] was determined as 20. Besides, the “PKC-theta/PKC-delta selectivity (binned)” value in experiment [1] is “D (a ratio of between 10 and 20)”. Also, the IC50 was 1 to 3.16 nM in experiment [2] (setting [4]), 3.16 nM in experiment [2] (setting [5]), 31.6 to 100 nM in experiment [3] (setting [6]) and 79.4 nM in experiment [3] (setting [7]).

For `O=c1[nH]c2nccc(-c3cc(Cl)cc(N4CCNCC4)c3)c2[nH]1` [Example 10], the PKC-theta/PKC-delta selectivity in experiment [1] turned out to be 1. In experiment [1], the “PKC-theta/PKC-delta selectivity (binned)” value is “F (a ratio of between 1 and 5)”. In addition, the IC50 in experiment [2] (setting [4]) is 316 to 1000 nM; in experiment [2] (setting [5]), 316 nM; in experiment [3] (setting [6]) it was over 1000 nM; in experiment [3] (setting [7]), 2000 nM.

Regarding `CC1(O)C(=O)Nc2nccc(-c3cc(Cl)cc(N4CCNCC4)c3)c21` (stereo not drawn) [Example 55], the PKC-theta/PKC-delta selectivity in experiment [1] is 9. Besides, the “PKC-theta/PKC-delta selectivity (binned)” value in experiment [1] is “E (a ratio of between 5 and 10)”. In addition, the IC50 in experiment [2] (setting [4]) was 10 to 31.6 nM; in experiment [2] (setting [5]) it was 10 nM; in experiment [3] (setting [6]), 316 to 1000 nM; in experiment [3] (setting [7]) it was 398 nM.

On to `C[C@H]1CN(c2cc(Cl)cc(-c3ccnc4c3[C@](C)(O)C(=O)N4)n2)CCN1` (single isomer, unassigned) [Example 110], for which the PKC-theta/PKC-delta selectivity in experiment [1] is 16. In experiment [1], the “PKC-theta/PKC-delta selectivity (binned)” value was “D (a ratio of between 10 and 20)”. For the same molecule, the IC50 in experiment [2] (setting [4]) is 0.316 to 1 nM; in experiment [2] (setting [5]), 1 nM; in experiment [3] (setting [6]), 10 to 31.6 nM; in experiment [3] (setting [7]), 25.1 nM.

As for `COC1(C)C(=O)Nc2nccc(-c3cc(Cl)cc(N4CCN[C@@H](C)C4)n3)c21` (stereo partly drawn) [Example 115], in experiment [1], the PKC-theta/PKC-delta selectivity is given as 12. In experiment [1], the “PKC-theta/PKC-delta selectivity (binned)” value is “D (a ratio of between 10 and 20)”. The IC50 in experiment [2] (setting [4]) is 3.16 to 10 nM; in experiment [2] (setting [5]), 10 nM; in experiment [3] (setting [6]), 100 to 316 nM; in experiment [3] (setting [7]) it was 158 nM.

With `CC[C@]1(O)C(=O)Nc2nccc(-c3cc(C(F)(F)F)cc(N4CCNC[C@H]4C)n3)c21` (single isomer, unassigned) [Example 167], in experiment [1], the PKC-theta/PKC-delta selectivity is given as 33. In experiment [1], the “PKC-theta/PKC-delta selectivity (binned)” value was “B (a ratio of between 30 and 50)”. Also, the IC50 in experiment [2] (setting [4]) is 100 to 316 nM; in experiment [2] (setting [5]), 316 nM; in experiment [3] (setting [6]), over 1000 nM; in experiment [3] (setting [7]), 2510 nM.

On to `CC1(C)C(=O)Nc2nccc(-c3cccc(C4CCNCC4)c3)c21` [Example 45], for which the PKC-theta/PKC-delta selectivity in experiment [1] worked out at 2. Further, the “PKC-theta/PKC-delta selectivity (binned)” value in experiment [1] is “F (a ratio of between 1 and 5)”. For the same molecule, the IC50 was 100 to 316 nM in experiment [2] (setting [4]), 200 nM in experiment [2] (setting [5]), over 1000 nM in experiment [3] (setting [6]) and 3980 nM in experiment [3] (setting [7]).

For the molecule `C[C@H]1CN(c2cc(C(F)(F)F)cc(-c3ccnc4c3C(C)(C)C(=O)N4)n2)CCCN1` [Example 185], in experiment [1], the PKC-theta/PKC-delta selectivity amounted to 27. The “PKC-theta/PKC-delta selectivity (binned)” value in experiment [1] is “C (a ratio of between 20 and 30)”. In addition, the IC50 in experiment [2] (setting [4]) was 3.16 to 10 nM; in experiment [2] (setting [5]), 5.01 nM; in experiment [3] (setting [6]), 31.6 to 100 nM; in experiment [3] (setting [7]), 39.8 nM.

Turning to `C[C@@H]1CN(c2cccc(-c3ccnc4c3C(C)(C)C(=O)N4)c2)CCN1` [Example 54], in experiment [1], the PKC-theta/PKC-delta selectivity is reported as 3. In addition, the “PKC-theta/PKC-delta selectivity (binned)” value in experiment [1] is “F (a ratio of between 1 and 5)”. For the same molecule, the IC50 in experiment [2] (setting [4]) is 31.6 to 100 nM; in experiment [2] (setting [5]), 100 nM; in experiment [3] (setting [6]), over 1000 nM; in experiment [3] (setting [7]), 2000 nM.

As to `CC1C(=O)Nc2nccc(-c3cc(F)cc(N4CCNCC4)c3)c21` (stereo not drawn) [Example 18], the PKC-theta/PKC-delta selectivity in experiment [1] was found to be 3. The “PKC-theta/PKC-delta selectivity (binned)” value in experiment [1] was “F (a ratio of between 1 and 5)”. In addition, the IC50 in experiment [2] (setting [4]) is 10 to 31.6 nM; in experiment [2] (setting [5]), 25.1 nM; in experiment [3] (setting [6]) it was 100 to 316 nM; in experiment [3] (setting [7]), 200 nM.

In the case of `C[C@@]1(O)C(=O)Nc2nccc(-c3cc(Cl)cc(N4CCNCC(F)C4)n3)c21` (single isomer, unassigned) [Example 91], in experiment [1], the PKC-theta/PKC-delta selectivity is 6. Moreover, the “PKC-theta/PKC-delta selectivity (binned)” value in experiment [1] is “E (a ratio of between 5 and 10)”. In addition, the IC50 in experiment [2] (setting [4]) was 3.16 to 10 nM; in experiment [2] (setting [5]), 6.31 nM; in experiment [3] (setting [6]), 100 to 316 nM; in experiment [3] (setting [7]), 200 nM.

For the molecule `CC1(C)C(=O)Nc2nccc(-c3cc(C(F)(F)F)cc(N4CCNCC4)n3)c21` [Example 66], the PKC-theta/PKC-delta selectivity in experiment [1] was 13. Besides, the “PKC-theta/PKC-delta selectivity (binned)” value in experiment [1] is “D (a ratio of between 10 and 20)”. Moreover, the IC50 in experiment [2] (setting [4]) was 3.16 to 10 nM; in experiment [2] (setting [5]), 5.01 nM; in experiment [3] (setting [6]) it was 31.6 to 100 nM; in experiment [3] (setting [7]), 79.4 nM.

Consider `Cc1cc(-c2ccnc3c2C(C)(C)C(=O)N3)cc(N2CCNCC2)c1` [Example 61], for which, in experiment [1], the PKC-theta/PKC-delta selectivity came out at 6. In addition, the “PKC-theta/PKC-delta selectivity (binned)” value in experiment [1] is “E (a ratio of between 5 and 10)”. The IC50 was 31.6 to 100 nM in experiment [2] (setting [4]), 50.1 nM in experiment [2] (setting [5]), 316 to 1000 nM in experiment [3] (setting [6]) and 794 nM in experiment [3] (setting [7]).

`C[C@@]1(O)C(=O)Nc2nccc(-c3cc(C(F)(F)F)cc(N4CCNC(CC(F)(F)F)C4)n3)c21` (stereo partly drawn) [Example 125]: in experiment [1], the PKC-theta/PKC-delta selectivity amounted to 13. Also, the “PKC-theta/PKC-delta selectivity (binned)” value in experiment [1] is “D (a ratio of between 10 and 20)”. The IC50 in experiment [2] (setting [4]) is 10 to 31.6 nM; in experiment [2] (setting [5]) it was 15.8 nM; in experiment [3] (setting [6]), 316 to 1000 nM; in experiment [3] (setting [7]), 398 nM.

With `CC1C(=O)Nc2nccc(-c3cccc(N4CCNCC4)c3)c21` (stereo not drawn) [Example 5], in experiment [1], the PKC-theta/PKC-delta selectivity is 4. Besides, the “PKC-theta/PKC-delta selectivity (binned)” value in experiment [1] was “F (a ratio of between 1 and 5)”. Besides, the IC50 is 31.6 to 100 nM in experiment [2] (setting [4]), 79.4 nM in experiment [2] (setting [5]), 316 to 1000 nM in experiment [3] (setting [6]) and 794 nM in experiment [3] (setting [7]).

For the molecule `C[C@@H]1CN(c2cc(Cl)cc(-c3ccnc4c3C(C)(O)C(=O)N4)n2)CCN1` (stereo partly drawn) [Example 73], the PKC-theta/PKC-delta selectivity in experiment [1] is 11. Besides, the “PKC-theta/PKC-delta selectivity (binned)” value in experiment [1] was “D (a ratio of between 10 and 20)”. The IC50 is 3.16 to 10 nM in experiment [2] (setting [4]), 6.31 nM in experiment [2] (setting [5]), 100 to 316 nM in experiment [3] (setting [6]) and 126 nM in experiment [3] (setting [7]).
